# Measured values reported in US20250243196A1, “CITRON KINASE INHIBITORS” (The Cleveland Clinic Foundation, priority 2021, published 2025).
# Experiments:
# Assay type in all cases: biochemical
# NUAK2(h) = NUAK2(h) (Homo sapiens (Human), UniProt Q9H093); experiment: KinaseProfiler panel; design: dose or concentration left out as unconfirmed; settings: activity remaining
# ALK2(h) = ALK2(h) (Homo sapiens (Human), UniProt Q04771); experiment: KinaseProfiler panel; design: dose or concentration left out as unconfirmed; settings: activity remaining
# Sequence of ALK2(h) (Q04771 21-509): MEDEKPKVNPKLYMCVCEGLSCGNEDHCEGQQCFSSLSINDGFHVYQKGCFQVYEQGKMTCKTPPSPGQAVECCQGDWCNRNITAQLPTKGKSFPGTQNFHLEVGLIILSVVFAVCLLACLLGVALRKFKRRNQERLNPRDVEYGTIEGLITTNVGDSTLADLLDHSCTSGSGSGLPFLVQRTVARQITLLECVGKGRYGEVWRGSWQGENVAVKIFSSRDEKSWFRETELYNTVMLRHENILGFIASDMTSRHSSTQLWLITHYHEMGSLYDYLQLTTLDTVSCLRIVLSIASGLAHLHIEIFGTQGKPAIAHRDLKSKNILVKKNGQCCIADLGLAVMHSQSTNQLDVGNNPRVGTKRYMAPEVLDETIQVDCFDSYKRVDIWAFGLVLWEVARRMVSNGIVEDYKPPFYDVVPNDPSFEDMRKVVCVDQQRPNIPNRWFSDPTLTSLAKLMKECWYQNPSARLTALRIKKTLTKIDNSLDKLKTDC
# MAK(h) = MAK(h) (Homo sapiens (Human), UniProt P20794); experiment: KinaseProfiler panel; design: dose or concentration left out as unconfirmed; settings: activity remaining
# Sequence of MAK(h) (P20794 whole entry): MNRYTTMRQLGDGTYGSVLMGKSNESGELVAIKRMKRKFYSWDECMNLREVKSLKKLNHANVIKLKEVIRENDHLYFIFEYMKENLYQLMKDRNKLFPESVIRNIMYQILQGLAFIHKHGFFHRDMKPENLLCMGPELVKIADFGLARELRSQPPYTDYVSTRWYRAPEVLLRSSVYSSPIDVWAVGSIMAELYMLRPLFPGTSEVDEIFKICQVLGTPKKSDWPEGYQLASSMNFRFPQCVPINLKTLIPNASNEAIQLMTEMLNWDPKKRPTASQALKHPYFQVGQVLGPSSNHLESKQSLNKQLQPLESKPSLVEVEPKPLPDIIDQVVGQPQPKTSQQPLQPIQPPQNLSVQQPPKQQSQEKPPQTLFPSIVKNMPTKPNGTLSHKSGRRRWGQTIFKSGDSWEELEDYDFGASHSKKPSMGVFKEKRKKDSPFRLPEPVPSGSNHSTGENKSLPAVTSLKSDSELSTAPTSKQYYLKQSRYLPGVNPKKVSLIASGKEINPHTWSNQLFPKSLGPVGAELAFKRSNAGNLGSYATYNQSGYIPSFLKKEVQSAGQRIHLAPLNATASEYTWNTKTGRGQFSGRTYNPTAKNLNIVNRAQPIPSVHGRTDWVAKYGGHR
# PRP4(h) = PRP4(h) (Homo sapiens (Human), UniProt Q13523); experiment: KinaseProfiler panel; design: dose or concentration left out as unconfirmed; settings: activity remaining
# CK1δ(h) = CK1δ(h) (Homo sapiens (Human), UniProt P48730); experiment: KinaseProfiler panel; design: dose or concentration left out as unconfirmed; settings: activity remaining
# TLK2(h) = TLK2(h) (Homo sapiens (Human), UniProt Q86UE8); experiment: KinaseProfiler panel; settings: activity remaining
# GSK3β(h) = GSK3β(h) (Homo sapiens (Human), UniProt P49841); experiment: KinaseProfiler panel; design: dose or concentration left out as unconfirmed; settings: activity remaining
# Sequence of GSK3β(h) (P49841 whole entry): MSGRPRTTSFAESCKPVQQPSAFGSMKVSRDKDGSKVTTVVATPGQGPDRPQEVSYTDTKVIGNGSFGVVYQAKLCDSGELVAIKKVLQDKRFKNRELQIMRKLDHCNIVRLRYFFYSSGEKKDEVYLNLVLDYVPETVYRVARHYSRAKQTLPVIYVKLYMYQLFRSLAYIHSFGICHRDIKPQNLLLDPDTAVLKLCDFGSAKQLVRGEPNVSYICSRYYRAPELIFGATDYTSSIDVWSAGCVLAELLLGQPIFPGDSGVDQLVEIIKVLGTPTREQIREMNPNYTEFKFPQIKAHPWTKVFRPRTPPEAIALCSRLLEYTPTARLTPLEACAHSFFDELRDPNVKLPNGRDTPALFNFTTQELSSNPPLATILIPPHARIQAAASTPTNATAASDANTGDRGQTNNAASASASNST
# STK32B(h) = STK32B(h) (Homo sapiens (Human), UniProt Q9NY57); experiment: KinaseProfiler panel; design: dose or concentration left out as unconfirmed; settings: activity remaining
# JNK1α1(h) = JNK1α1(h) (Homo sapiens (Human), UniProt P45983); experiment: KinaseProfiler panel; design: dose or concentration left out as unconfirmed; settings: activity remaining
# Sequence of JNK1α1(h) (P45983 other isoform, or with tags, fused parts or gaps): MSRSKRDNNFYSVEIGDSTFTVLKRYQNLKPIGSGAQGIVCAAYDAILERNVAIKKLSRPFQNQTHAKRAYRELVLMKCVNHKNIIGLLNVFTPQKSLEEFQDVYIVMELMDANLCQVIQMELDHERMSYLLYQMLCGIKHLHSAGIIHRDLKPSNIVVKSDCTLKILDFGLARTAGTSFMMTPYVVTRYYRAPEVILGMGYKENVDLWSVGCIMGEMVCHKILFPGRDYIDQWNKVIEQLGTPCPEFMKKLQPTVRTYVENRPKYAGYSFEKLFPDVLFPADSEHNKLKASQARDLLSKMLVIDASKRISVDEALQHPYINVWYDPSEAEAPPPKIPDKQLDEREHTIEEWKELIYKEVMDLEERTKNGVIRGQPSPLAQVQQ
# ChaK1(h) = ChaK1(h) (Homo sapiens (Human), UniProt Q96QT4); experiment: KinaseProfiler panel; design: dose or concentration left out as unconfirmed; settings: activity remaining
# DDR1(h) = DDR1(h) (Homo sapiens (Human), UniProt Q08345); experiment: KinaseProfiler panel; design: dose or concentration left out as unconfirmed; settings: activity remaining
# AAK1 = AAK1 (Homo sapiens (Human), UniProt Q2M2I8); experiment: KinaseProfiler radiometric assay (16-043KP); settings: mean of at least two independent experiments
# Source text: In another aspect, disclosed is a method of inhibiting citron kinase in a sample, comprising contacting the sample with a compound described herein (e.g., a compound of formula (I) or a pharmaceutically acceptable salt thereof), or a pharmaceutical composition described herein (e.g., a pharmaceutical composition comprising a compound of formula (I) or a pharmaceutically acceptable salt thereof), in an amount effective to inhibit citron kinase. In some embodiments, the step of contacting the sample with the compound comprises administering the compound to a subject (e.g., a subject) suffering from cancer. Methods of determining kinase inhibition are well known in the art. For example, kinase activity of an enzyme and the inhibitory capacity of a test compound can be determined by measuring enzyme specific phosphorylation of a substrate. Commercial assays and kits can be employed. For example, kinase inhibition can be determined using a radiometric binding assay, such as using KinaseProfiler™ technology (Eurofins Discovery). This assay method directly detects product formation without the use of modified substrates or coupling enzymes. […]
# The effect of various compounds on the inhibition of other kinases has also been determined. Table 2 reports measured IC50 values; value units are nanomolar inhibition.
# NEK2(h) = NEK2(h) (Homo sapiens (Human), UniProt P51955); experiment: KinaseProfiler panel; design: dose or concentration left out as unconfirmed; settings: activity remaining
# Sequence of NEK2(h) (P51955 whole entry): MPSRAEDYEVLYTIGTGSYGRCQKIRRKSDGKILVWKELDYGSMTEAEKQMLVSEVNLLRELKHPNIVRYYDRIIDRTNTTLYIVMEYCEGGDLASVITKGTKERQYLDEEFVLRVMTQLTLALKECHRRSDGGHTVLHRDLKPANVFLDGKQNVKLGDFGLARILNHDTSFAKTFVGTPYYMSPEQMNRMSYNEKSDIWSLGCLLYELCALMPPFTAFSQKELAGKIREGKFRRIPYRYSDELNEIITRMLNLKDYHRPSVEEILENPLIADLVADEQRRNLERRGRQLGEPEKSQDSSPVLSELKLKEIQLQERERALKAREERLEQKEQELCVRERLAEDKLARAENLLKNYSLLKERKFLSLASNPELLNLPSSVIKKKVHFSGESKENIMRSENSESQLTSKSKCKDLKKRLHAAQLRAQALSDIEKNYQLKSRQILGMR
# TLK1(h) = TLK1(h) (Homo sapiens (Human), UniProt Q9UKI8); experiment: KinaseProfiler panel; settings: activity remaining
# Sequence of TLK1(h) (Q9UKI8 whole entry): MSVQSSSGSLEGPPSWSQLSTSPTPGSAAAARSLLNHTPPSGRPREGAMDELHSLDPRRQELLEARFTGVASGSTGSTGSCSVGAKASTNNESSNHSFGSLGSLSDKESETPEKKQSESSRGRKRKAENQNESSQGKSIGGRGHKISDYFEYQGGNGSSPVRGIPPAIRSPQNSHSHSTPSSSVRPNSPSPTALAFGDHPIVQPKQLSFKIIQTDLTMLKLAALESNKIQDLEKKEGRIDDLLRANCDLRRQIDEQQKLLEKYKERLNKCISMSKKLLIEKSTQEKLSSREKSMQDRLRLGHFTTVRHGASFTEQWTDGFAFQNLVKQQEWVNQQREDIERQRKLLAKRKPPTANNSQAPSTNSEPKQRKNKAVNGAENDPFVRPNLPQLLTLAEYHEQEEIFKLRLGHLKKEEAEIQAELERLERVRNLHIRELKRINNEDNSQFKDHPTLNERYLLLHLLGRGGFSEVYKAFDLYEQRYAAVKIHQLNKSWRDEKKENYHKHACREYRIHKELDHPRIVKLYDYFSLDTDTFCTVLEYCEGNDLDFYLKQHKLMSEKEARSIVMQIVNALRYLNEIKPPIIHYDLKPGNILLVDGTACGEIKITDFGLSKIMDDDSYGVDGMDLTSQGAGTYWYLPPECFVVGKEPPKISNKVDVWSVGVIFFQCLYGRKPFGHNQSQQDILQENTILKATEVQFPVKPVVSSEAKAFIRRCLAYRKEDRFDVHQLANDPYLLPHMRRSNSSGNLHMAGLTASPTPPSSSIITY
# CK2(h) = CK2(h) (Homo sapiens (Human), UniProt P68400); experiment: KinaseProfiler panel; design: dose or concentration left out as unconfirmed; settings: activity remaining
# Sequence of CK2(h) (P68400 whole entry): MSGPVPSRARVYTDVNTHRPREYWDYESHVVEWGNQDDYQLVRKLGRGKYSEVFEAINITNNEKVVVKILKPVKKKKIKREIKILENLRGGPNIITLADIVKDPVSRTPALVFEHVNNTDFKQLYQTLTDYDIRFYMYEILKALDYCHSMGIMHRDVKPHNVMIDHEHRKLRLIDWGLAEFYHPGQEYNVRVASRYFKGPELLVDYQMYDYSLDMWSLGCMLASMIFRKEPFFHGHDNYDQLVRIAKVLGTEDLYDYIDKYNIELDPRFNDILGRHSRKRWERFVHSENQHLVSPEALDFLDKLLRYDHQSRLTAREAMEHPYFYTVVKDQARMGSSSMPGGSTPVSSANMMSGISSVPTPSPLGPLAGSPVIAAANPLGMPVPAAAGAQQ
# Sequence of CK2(h) (P67870 whole entry partner): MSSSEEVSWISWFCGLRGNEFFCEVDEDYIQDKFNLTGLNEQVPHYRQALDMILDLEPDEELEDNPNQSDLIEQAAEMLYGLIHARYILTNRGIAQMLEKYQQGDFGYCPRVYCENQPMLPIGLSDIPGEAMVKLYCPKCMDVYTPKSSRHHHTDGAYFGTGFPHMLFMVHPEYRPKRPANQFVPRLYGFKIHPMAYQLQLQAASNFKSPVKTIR
# Rsk4(h) = Rsk4(h) (Homo sapiens (Human), UniProt Q9UK32); experiment: KinaseProfiler panel; settings: activity remaining
# CDK2/cyclinA(h) = CDK2/cyclinA(h) (Homo sapiens (Human), UniProt P24941); experiment: KinaseProfiler panel; design: dose or concentration left out as unconfirmed; settings: activity remaining
# CK1γ2(h) = CK1γ2(h) (Homo sapiens (Human), UniProt P78368); experiment: KinaseProfiler panel; design: dose or concentration left out as unconfirmed; settings: activity remaining
# Hck(h) = Hck(h) (Homo sapiens (Human), UniProt P08631); experiment: KinaseProfiler panel; design: dose or concentration left out as unconfirmed; settings: activity remaining
# Yes(h) = Yes(h) (Homo sapiens (Human), UniProt P07947); experiment: KinaseProfiler panel; design: dose or concentration left out as unconfirmed; settings: activity remaining
# Sequence of Yes(h) (P07947 whole entry): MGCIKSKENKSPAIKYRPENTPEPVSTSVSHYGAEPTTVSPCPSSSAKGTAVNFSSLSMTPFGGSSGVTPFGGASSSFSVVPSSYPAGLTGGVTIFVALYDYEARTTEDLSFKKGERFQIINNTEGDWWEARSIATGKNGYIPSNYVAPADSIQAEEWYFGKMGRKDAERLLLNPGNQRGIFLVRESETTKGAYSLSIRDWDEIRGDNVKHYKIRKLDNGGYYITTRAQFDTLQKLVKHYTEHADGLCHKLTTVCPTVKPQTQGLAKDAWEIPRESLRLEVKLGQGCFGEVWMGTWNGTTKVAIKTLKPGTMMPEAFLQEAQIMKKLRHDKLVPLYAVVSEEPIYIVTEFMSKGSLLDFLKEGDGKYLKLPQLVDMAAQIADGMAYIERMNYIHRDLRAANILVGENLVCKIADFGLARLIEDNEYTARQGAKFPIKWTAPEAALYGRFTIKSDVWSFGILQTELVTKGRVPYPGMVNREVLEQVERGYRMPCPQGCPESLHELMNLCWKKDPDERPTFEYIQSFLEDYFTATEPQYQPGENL
# MKK6(h) = MKK6(h) (Homo sapiens (Human), UniProt P52564); experiment: KinaseProfiler panel; design: dose or concentration left out as unconfirmed; settings: activity remaining
# WNK3(h) = WNK3(h) (Homo sapiens (Human), UniProt Q9BYP7); experiment: KinaseProfiler panel; design: dose or concentration left out as unconfirmed; settings: activity remaining
# CK2α1(h) = CK2α1(h) (Homo sapiens (Human), UniProt P68400); experiment: KinaseProfiler panel; design: dose or concentration left out as unconfirmed; settings: activity remaining
# Sequence of CK2α1(h) (P68400 whole entry): as the sequence (P68400 whole entry) above
# ZAP-70(h) = ZAP-70(h) (Homo sapiens (Human), UniProt P43403); experiment: KinaseProfiler panel; design: dose or concentration left out as unconfirmed; settings: activity remaining
# Sequence of ZAP-70(h) (P43403 whole entry): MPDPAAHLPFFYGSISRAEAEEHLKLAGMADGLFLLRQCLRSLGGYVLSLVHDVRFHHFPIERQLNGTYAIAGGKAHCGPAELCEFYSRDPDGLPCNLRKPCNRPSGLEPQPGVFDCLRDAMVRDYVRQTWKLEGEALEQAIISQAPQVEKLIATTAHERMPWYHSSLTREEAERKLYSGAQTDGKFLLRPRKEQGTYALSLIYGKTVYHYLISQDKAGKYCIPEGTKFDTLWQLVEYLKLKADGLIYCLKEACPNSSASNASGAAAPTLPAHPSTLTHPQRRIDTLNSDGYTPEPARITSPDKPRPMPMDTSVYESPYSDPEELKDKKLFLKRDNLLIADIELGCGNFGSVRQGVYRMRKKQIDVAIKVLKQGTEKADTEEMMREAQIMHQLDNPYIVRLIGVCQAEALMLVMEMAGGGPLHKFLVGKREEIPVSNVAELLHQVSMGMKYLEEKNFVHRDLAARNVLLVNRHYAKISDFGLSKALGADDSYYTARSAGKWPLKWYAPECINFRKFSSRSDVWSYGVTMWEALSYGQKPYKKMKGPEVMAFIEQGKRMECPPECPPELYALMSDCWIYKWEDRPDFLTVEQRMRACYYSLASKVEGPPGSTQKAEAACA
# PRK1(h) = PRK1(h) (Homo sapiens (Human), UniProt Q16512); experiment: KinaseProfiler panel; design: dose or concentration left out as unconfirmed; settings: activity remaining
# MSSK1(h) = MSSK1(h) (Homo sapiens (Human), UniProt Q9UPE1); experiment: KinaseProfiler panel; settings: activity remaining
compound,measurement,setting,value
"Cc1cc2c(-c3ccc(NC(=O)[C@H](N)CC(C)(C)C)cc3C)ccnc2[nH]1 [Compound F-90, (2R)-2-Amino-4,4-dimethyl-N-[3-methyl-4-(2-methyl-1H-pyrrolo[2,3-b]pyridin-4-yl)phenyl]pentanamide]",% Activity,NUAK2(h),72%
same,% Activity,ALK2(h),122%
same,% Activity,MAK(h),120%
same,% Activity,PRP4(h),100%
same,% Activity,CK1δ(h),96%
same,% Activity,TLK2(h),92%
same,% Activity,GSK3β(h),93%
same,% Activity,STK32B(h),115%
same,% Activity,JNK1α1(h),110%
same,% Activity,ChaK1(h),106%
same,% Activity,DDR1(h),98%
same,IC50,AAK1,212 nM
same,% Activity,NEK2(h),118%
same,% Activity,TLK1(h),82%
same,% Activity,CK2(h),112%
same,% Activity,Rsk4(h),101%
same,% Activity,CDK2/cyclinA(h),87%
same,% Activity,CK1γ2(h),97%
same,% Activity,Hck(h),99%
same,% Activity,Yes(h),87%
same,% Activity,MKK6(h),101%
same,% Activity,WNK3(h),85%
same,% Activity,CK2α1(h),112%
same,% Activity,ZAP-70(h),71%
same,% Activity,PRK1(h),91%
same,% Activity,MSSK1(h),134%
